This is an account of results in patent publication US8853228B2, “Heterocyclic analogs of propargyl-linked inhibitors of dihydrofolate reductase” (University of Connecticut, priority 2011, dated 2014).

For orientation: IC50 means the point on the concentration scale where inhibition reaches its midpoint. The Solubility is the concentration that dissolves in the medium under given conditions.

≈ marks a conversion by molar mass, not a printed value. Where two headings read alike, the source gives them in different places.

For series [1], the target named is hDHFR (Homo sapiens (Human), UniProt P00374). Briefly: hDHFR enzyme inhibition assay. The class given is biochemical.
Sequence of hDHFR (P00374 whole entry): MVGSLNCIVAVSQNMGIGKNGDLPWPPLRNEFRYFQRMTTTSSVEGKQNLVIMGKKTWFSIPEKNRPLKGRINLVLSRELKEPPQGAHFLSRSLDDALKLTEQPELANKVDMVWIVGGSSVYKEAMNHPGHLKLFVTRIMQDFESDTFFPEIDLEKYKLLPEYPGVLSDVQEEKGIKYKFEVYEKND
In series [2] the target is CgDHFR (Candida glabrata (strain ATCC 2001 / BCRC 20586 / JCM 3761 / NBRC 0622 / NRRL Y-65 / CBS 138) (Yeast) (Nakaseomyces glabratus), UniProt Q6FPH0). Briefly: biochemical.
Sequence of CgDHFR (Q6FPH0 1-217): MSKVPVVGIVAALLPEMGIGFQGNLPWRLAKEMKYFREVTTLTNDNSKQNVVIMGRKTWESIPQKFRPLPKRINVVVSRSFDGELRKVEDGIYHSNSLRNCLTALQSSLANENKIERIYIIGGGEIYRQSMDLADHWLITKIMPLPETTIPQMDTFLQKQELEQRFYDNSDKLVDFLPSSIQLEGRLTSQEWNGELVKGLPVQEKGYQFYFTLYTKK
Series [3] has as its system C. glabrata. Briefly: Antifungal assay (MIC, Alamar Blue). The class given is cell-based, Candida glabrata. (In general: The colour change of resazurin is a common sign of viable cells or microbes.)
Series [4] deals with S. aureus DHFR (Staphylococcus aureus, UniProt P0A017). The series is classed as biochemical. As for the experimental part:
(§1) Enzyme inhibition assays were performed by monitoring the rate of NADPH oxidation by the DHFR enzyme at an absorbance of 340 nm. Assays were performed in the presence of saturating concentrations of NADPH and initiated with dihydrofolate. All assays were completed at 25° C. in a buffer containing 20 mM TES pH 7.0, 50 mM KCl, 10 mM 2-mercaptoethanol, 0.5 mM EDTA and 1 mg/mL BSA. Inhibition was measured at least three times with inhibitor concentrations near the IC50 value and the average IC50 value is reported with a standard deviation.

In series [5] the target is S. pyogenes DHFR (Streptococcus pyogenes, UniProt Q9A091). Description: S. pyogenes DHFR enzyme inhibition assay. The class given is biochemical. As for the experimental part: as §1
Sequence of S. pyogenes DHFR (Q9A091 1-165): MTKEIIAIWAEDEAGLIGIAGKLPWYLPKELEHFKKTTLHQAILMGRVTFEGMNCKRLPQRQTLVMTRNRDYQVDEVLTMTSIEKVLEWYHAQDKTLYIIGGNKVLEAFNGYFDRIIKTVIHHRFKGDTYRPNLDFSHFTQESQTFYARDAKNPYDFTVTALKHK
The subject of series [6] is S. aureus 13709 (MRSA). Briefly: Antibacterial MIC, broth microdilution with Alamar Blue. The class given is cell-based, Staphylococcus aureus. (In general: In broth dilution the organism is exposed to a series of concentrations in liquid medium.)
Series [7] deals with Streptococcus pyogenes. The series is described as above. The series is classed as cell-based.
Series [8] concerns MCF-10 cells. Briefly: Mammalian cell toxicity, MCF-10. The series is classed as cell-based, human. The note with it: cytotoxicity.
Series [9] has as its system HepG2 cells. Briefly: Mammalian cell toxicity, HepG2. The series is classed as cell-based. The note with it: cytotoxicity, Table 6. The protocol:
Adherent cell lines were maintained in Eagle's Minimal Essential Media (Sigma-Aldrich, St. Louis, Mo., USA) with 2 mM glutamine and Earle's Balanced Salt Solution (HyClone, Logan, Utah, USA) adjusted to contain 1.5 g/L sodium bicarbonate, 0.1 mM non-essential amino acids, 1 mM sodium pyruvate and 10% fetal calf serum. Fetal calf serum used in these assays was lot matched throughout. […] Toxicity assays were conducted between passages 10-20. Target compound toxicity was measured by incubating the test compound with the cells for 4 h, washing the cells and finally treating the cells with Alamar Blue. After 12-24 h, the fluorescence of the reduced dye was measured. Fluorescence intensity as a function of test compound concentration was fit to the Fermi equation, using non-linear least squares regression analysis, to estimate IC50 values.

The nature of series [10]: Measured solubility. The series is classed as physicochemical. The note with it: in 200 mcg/mL HPMC and 0.2% DMSO.
The target in series [11] is ChDHFR-TS (Cryptosporidium hominis, UniProt Q27552). Description: ChDHFR enzyme inhibition assay. The note with it: Table 4. The series is classed as biochemical. As for the experimental part:
Enzyme and inhibitor were allowed to incubate for 5 min before adding dihydrofolate to initiate the reaction. Enzyme assays were performed at least four times. IC50 values and their standard deviations were calculated in the presence of varying concentrations of inhibitor near the IC50 concentration.
Compounds were evaluated in spectrophotometric enzyme assays using ChDHFR-TS and hDHFR. Inhibition constants (IC50) were measured (see Table 4). […] The compound abbreviations in Table 4 refer to the following compounds: […]

For series [12], the system named is mammalian cell lines. The note with it: result in words.
Where [13] appears, read: average of at least three measurements.

Sequence of ChDHFR-TS (Q27552 1-521): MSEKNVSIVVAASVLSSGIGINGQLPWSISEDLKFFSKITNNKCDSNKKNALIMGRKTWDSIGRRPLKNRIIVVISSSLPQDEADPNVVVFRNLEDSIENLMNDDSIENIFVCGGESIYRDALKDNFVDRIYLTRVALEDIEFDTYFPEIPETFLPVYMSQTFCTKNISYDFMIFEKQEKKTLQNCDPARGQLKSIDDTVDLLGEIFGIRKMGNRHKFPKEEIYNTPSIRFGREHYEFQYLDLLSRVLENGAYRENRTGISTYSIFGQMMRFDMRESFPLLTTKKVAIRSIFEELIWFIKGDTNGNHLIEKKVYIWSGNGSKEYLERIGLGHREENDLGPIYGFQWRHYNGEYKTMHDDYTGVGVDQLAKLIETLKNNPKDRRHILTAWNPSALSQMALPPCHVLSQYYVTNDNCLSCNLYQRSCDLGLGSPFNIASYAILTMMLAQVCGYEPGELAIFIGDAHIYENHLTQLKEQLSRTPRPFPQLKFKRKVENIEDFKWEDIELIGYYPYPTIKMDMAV

`COc1cc(C(C)C#Cc2c(C)nc(N)nc2N)cc(N2CCOCC2)c1` (centres unmarked) [Compound 152]: the IC50 is 400 ± 40 nM in [1] (Table 5, average of at least three measurements, read-out: IC50 human); 400 ± 40 nM in [1] (Table 7, read-out: IC50 (hDHFR)); 20 ± 3 nM in series [2] (Table 7, read-out: IC50 (CgDHFR)); 29 ± 2 nM in series [4] (setting [13]); 26 ± 4 nM in [5] (setting [13]); 462000 nM in series [8] (Table 6). In addition, the IC50 turned out to be 462000 nM in series [8] (Table 8) and 494000 nM in series [9]. For the same molecule, the Selectivity in [2] (Table 7, hDHFR vs CgDHFR) turned out to be 20 ± 4. Further, the “MIC (Cg)” value in series [3] (C. glabrata, YM media) was 12 µg/mL (≈ 32.7 µM). Further, in [3] (IC50 (MCF-10)/MIC (C. glabrata)), the “Selectivity Index” value came out at 330. The “MIC C. glabrata” value in [3] (IsoSensitest media supplemented with 2% glucose (thymidine-depleted)) turned out to be 1.4 µg/mL (≈ 3.81 µM). Further, in series [4] (IC50 (human)/IC50 (pathogen)), the “Selectivity (h/Sa)” value came to 14. Besides, in series [5] (IC50 (human)/IC50 (pathogen)), the “Selectivity (h/Sp)” value was 15. In series [6] (IC50 (MCF10)/MIC (pathogen)), the “Selectivity MRSA” value was 159. For the same molecule, in series [6] (Table 6), the “MIC MRSA” value is 2.9 µg/mL (≈ 7.89 µM). The “Selectivity S. pyogenes” value in series [7] (IC50 (MCF10)/MIC (pathogen)) is listed as 19,250. Moreover, the “MIC S. pyogenes” value in [7] (Table 6) was 0.024 µg/mL (≈ 0.0653 µM). The Solubility in [10] amounted to 80 µg/mL (≈ 218 µM).

In the case of `COc1cc(-c2c(C(C)C)cccc2C(C)C)ccc1C(C)C#Cc1c(C)nc(N)nc1N` (centres unmarked) [Compound F26I, 5-[3-(3-methoxy-2′6′-diisopropylbiphenyl-4-yl)but-1-yn-1-yl]-6-methylpyrimidine-2,4-diamine], in [11], the “Selectivity Ratio (IC50 ChDHFR/IC50 hDHFR)” value came to 262. For the same molecule, the IC50 in series [11] (read-out: IC50 (ChDHFR)) amounted to 16 nM; in series [1] (Table 4, read-out: IC50 (hDHFR)) it was 4200 ± 0.1 nM. For the same molecule, the mammalian cell toxicity result in [12] was “display mammalian cell toxcity”.
